Assays:
F508del/F508del CFTR = molecular target: T1, F508del/F508del CFTR (Homo sapiens, UniProt P13569, DEL508-508); experiment: Transepithelial Clamp Circuit (TECC-24) conductance assay on primary human bronchial epithelial cells; format: cell-based; conditions: primary hBE cells from F508del/F508delCFTR patients; for EC50: equivalent short circuit current (Ieq), correctors 18-24 hours at 37° C., with control potentiator, 6 test concentrations; for Maximum % activity: relative to positive control (3 μM) coupled with control potentiator = 100%
T1 construct: cells isolated from CF patients with the homozygous mutation; endogenous in cells; host or cells: primary human bronchial epithelial (hBE) cells from F508del/F508del CF patients
T1 sequence (P13569 with tags, fused parts or gaps DEL508-508): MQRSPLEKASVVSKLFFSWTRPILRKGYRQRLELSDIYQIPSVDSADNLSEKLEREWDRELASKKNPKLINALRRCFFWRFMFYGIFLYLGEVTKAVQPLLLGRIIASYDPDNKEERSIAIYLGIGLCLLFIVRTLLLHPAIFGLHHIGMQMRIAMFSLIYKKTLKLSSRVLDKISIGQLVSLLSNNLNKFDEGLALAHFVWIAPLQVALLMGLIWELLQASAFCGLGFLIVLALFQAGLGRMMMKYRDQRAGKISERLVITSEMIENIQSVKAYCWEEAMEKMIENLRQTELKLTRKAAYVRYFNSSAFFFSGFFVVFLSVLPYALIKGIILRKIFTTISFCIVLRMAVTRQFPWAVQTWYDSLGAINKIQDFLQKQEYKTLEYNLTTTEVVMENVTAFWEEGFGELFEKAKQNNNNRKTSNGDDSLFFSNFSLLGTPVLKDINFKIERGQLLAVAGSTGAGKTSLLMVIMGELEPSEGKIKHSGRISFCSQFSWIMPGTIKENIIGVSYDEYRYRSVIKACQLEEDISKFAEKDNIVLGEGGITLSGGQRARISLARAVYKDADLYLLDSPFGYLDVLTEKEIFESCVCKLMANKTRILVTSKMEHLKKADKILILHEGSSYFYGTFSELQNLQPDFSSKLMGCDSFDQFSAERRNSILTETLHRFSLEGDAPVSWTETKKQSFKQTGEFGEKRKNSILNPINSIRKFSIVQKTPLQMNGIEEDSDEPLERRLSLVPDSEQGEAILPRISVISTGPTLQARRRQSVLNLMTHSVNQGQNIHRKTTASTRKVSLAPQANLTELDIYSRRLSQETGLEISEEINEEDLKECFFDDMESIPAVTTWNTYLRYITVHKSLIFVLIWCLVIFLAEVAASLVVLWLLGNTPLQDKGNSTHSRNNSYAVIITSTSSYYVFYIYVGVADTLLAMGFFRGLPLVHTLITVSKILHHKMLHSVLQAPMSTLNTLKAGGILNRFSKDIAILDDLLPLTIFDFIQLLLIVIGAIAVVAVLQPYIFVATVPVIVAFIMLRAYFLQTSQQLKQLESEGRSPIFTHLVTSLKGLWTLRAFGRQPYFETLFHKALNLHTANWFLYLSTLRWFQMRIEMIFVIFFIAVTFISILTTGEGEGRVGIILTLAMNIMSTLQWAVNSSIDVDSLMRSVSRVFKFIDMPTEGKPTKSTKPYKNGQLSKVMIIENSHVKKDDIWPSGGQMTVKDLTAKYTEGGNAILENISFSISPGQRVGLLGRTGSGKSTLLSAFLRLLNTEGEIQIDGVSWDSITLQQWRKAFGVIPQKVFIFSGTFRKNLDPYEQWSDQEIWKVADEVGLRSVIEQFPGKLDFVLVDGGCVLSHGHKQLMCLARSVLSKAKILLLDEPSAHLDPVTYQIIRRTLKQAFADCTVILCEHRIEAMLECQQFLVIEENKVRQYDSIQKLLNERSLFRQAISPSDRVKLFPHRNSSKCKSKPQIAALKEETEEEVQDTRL
From the text: Transepithelial Clamp Circuit on Human Bronchial Epithelial Cells Conductance Assay:
A cell based assay using the primary human bronchial epithelial cells (hBE) was used as a secondary assay to test novel F508delCFTR correctors for their activity on primary hBE cells with F508del/F508del CFTR mutation. The assay used a TECC-24 (Transepithelial Clamp Circuit for 24 wells) instrument that measures the functionality of the mutated channel by measuring the equivalent short circuit current (Ieq) generated by the polarized epithelial cells. The instrument works by measuring the transepithelial potential difference (Vt) and transepithelial resistance (Rt) in an open circuit format, and the Ieq is calculated by using Ohms law (Ieq=Vt/Rt). The assay was run in a 24-well format and all 24-wells were measured at the same time point giving a higher throughput for this assay.
Primary human bronchial epithelial (hBE) cells from F508del/F508delCFTR patients were expanded from 1×10^6 to 250×10^6 cells (Neuberger T, Burton B, Clark H and VanGoor F; Cystic Fibrosis, Methods in Mole Biol 741; eds. Amaral M D and Kunzelmann K, 2011). For this purpose, cells isolated from CF patients with the homozygous mutation were seeded onto 24 well Corning (Cat #3378) filter plates that were coated with 3T3 conditioned media and grown at an air-liquid interface for 35 days using an Ultroser® G supplemented differentiation media. Apical surface mucus was removed 72 hours before the experiment using 3 mM dithiothreitol (DTT) in phosphate buffered saline (PBS). The apical surface was washed again 24 hours before the experiment using PBS. The cells were incubated with the desired dose response of the corrector compounds 18-24 hours at 37° C., 5% CO2. The corrector compounds are only added on the basolateral side of the epithelial cells.
On the day of measuring the corrector activity on the TECC, the cells were switched into a bicarbonate and serum free F-12 Coon's medium and allowed to equilibrate for 90 minutes in a CO2 free incubator. At the time of measurement, the apical and basolateral sides of the filter were bathed with the F-12 Coon's modification media (with 20 mM 4-(2-hydroxyethyl)-1-piperazineethanesulfonic acid (HEPES), pH 7.4 (using 1 M tris(hydroxymethyl)aminomethane (Tris)), and the measurements were made at 36.5° C. Transepithelial voltage (Vt) and transepithelial resistance (Rt) were measured using a 24 channel transepithelial current clamp (TECC-24). Current responses to the sequential addition of benzamil (apical 6 M addition; for inhibiting epithelial ENaC channel), forskolin (apical and basolateral 10 M addition; for activating the CFTR channel), control potentiator (N-(3-carbamoyl-5,5,7,7-tetramethyl-4,7-dihydro-5H-thieno[2,3-c]pyran-2-yl)-1H-pyrazole-5-carboxamide; apical and basolateral 1 M addition; for potentiating the CFTR channel) and bumetanide (basolateral 20 μM addition; for inhibiting the Na:2Cl:K co-transporter, an indirect measure of inhibiting the Cl-secretion driven by CFTR channel) were measured.
All plates contained negative controls (dimethyl sulfoxide, DMSO) which coupled with the control potentiator (N-(3-carbamoyl-5,5,7,7-tetramethyl-4,7-dihydro-5H-thieno[2,3-c]pyran-2-yl)-1H-pyrazole-5-carboxamide) sets the null response and positive controls (3 μM of 3-[(2R,4R)-4-({[1-(2,2-difluoro-1,3-benzodioxol-5-yl)cyclopropyl]carbonyl}amino)-7-methoxy-3,4-dihydro-2H-chromen-2-yl]benzoic acid) coupled with the control potentiator sets the 100% response to measure the correction of the mutated CFTR channel. The maximum percent activity is reported relative to the positive control value.
The % activity measured at each of the 6 test concentrations of the test compound was normalized to the on-plate positive control using the following formula: % activity=[(test compound response−DMSO response)/(positive control response−DMSO response)]*100 […]

F508delCFTR = molecular target: T2, F508delCFTR (Homo sapiens, UniProt P13569, DEL508-508); experiment: Cell Surface Expression-Horse Radish Peroxidase (CSE-HRP) assay; format: cell-based; conditions: CFBE41o-F508delCFTR-HRP cells; for EC50: cell surface expression, luminescence readout, 18-24 hours at 33° C., highest concentration tested 20 μM, 8-point curve; for Maximum % activity: maximum at any tested concentration, normalized to on-plate positive control (3 μM) and DMSO
T2 construct: expressed in transfected cells; host or cells: CFBE41o- (CFBE41o-F508delCFTR-HRP), doxycycline-inducible
T2 sequence (P13569 with tags, fused parts or gaps DEL508-508): as above
Summary of the method: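 CFBE41o- cells expressing F508delCFTR with HRP in the fourth extracellular loop were doxycycline-induced (0.5 μg/mL) for 72 h at 37 °C, then treated 18-24 h at 33 °C with an 8-point 3-fold series from 20 μM. Surface HRP luminescence (luminol) was normalized to DMSO and positive control; EC50 came from variable-slope sigmoidal fits of triplicate plates.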

| Structure (SMILES) | EC50 (F508del/F508del CFTR) | Maximum % activity (F508del/F508del CFTR) | EC50 (F508delCFTR) | Maximum % activity (F508delCFTR) |
| --- | --- | --- | --- | --- |
| O=C(O)c1ccc([C@H]2C[C@@H](NC(=O)C3(c4ccc5c(c4)OC(F)(F)O5)CC3)CCO2)cc1 [Example 31, 4-[(2R,4S)-4-({[1-(2,2-difluoro-1,3-benzodioxol-5-yl)cyclopropyl]carbonyl}amino)tetrahydro-2H-pyran-2-yl]benzoic acid] | 1030 nM | 65% | 770 nM | 102% |
| Cc1cc(C(=O)O)ccc1[C@H]1C[C@H](NC(=O)C2(c3ccc4c(c3)OC(F)(F)O4)CC2)C[C@@H](c2ccccc2)O1 (single isomer, unassigned) [Example 65] | 200 nM | – | 370 nM | – |
| O=C(O)c1ccc([C@H]2C[C@@H](NC(=O)C3(c4ccc5c(c4)OC(F)(F)O5)CC3)C[C@@H](c3ccccc3)O2)c(F)c1 (racemic) [Example 60, rac-4-[(2R,4S,6S)-4-({[1-(2,2-difluoro-1,3-benzodioxol-5-yl)cyclopropyl]carbonyl}amino)-6-phenyltetrahydro-2H-pyran-2-yl]-3-fluorobenzoic acid] | 140 nM | 83% | 270 nM | 97% |

From patent US9567322B2, “Substituted tetrahydropyrans and method of use” (AbbVie S.á.r.l., priority 2014, dated 2017)
